US20100022551A1, “TRIMETAZIDINE FOR USE IN THE TREATMENT OF FIBROMYALGIA SYNDROME AND RELATED CONDITIONS” (Mintals Limited Consulco, Consulco House, priority 2006, published 2010)
Several values for one entry are separate records, joined by “and”; a condition that tells them apart may be missing. Identical values can stand only once. Entries after “also recorded” stand apart in the source; their conditions may differ.

Assays:
[1] = test system: Human Subject Diagnosed with Fibromyalgia; test: Patient history of prior treatment of the fibromyalgia subjects; conditions: for pain relief, prescription analgesics / side effects, prescription analgesics: Examples 1-3, codeine at high dose; for pain relief, OTC analgesics: Examples 1-3, codeine at low dose
From the text: (§1) Patient History of Prior Treatment: A patient history was taken. Prior treatments targeting pain relief were as follows.
Prior treatments targeting other symptoms included the following. The subject had taken tegaserod for irritable bowel syndrome. Additional prior therapies included sertraline for depression, and zolpidem for insomnia. The subject has also taken proclorperazine for dizziness.
Prior treatments targeting other symptoms included the following. The subject had taken tegaserod for irritable bowel syndrome. Additional prior therapies included sertraline for depression, and zolpidem for insomnia.
as §1
Prior treatments targeting other symptoms included the following. The subject had taken tegaserod for irritable bowel syndrome. Additional prior therapies included zolpidem, midazolam, zopiclone, and chlorpheniramine for insomnia.

[2] = target: long chain 3-ketoacyl CoA thiolase (Rattus norvegicus, UniProt Q60587); conditions: Kantor et al., Circ. Res. 2000; cited from earlier work
long chain 3-ketoacyl CoA thiolase, sequence (Q60587 35-475): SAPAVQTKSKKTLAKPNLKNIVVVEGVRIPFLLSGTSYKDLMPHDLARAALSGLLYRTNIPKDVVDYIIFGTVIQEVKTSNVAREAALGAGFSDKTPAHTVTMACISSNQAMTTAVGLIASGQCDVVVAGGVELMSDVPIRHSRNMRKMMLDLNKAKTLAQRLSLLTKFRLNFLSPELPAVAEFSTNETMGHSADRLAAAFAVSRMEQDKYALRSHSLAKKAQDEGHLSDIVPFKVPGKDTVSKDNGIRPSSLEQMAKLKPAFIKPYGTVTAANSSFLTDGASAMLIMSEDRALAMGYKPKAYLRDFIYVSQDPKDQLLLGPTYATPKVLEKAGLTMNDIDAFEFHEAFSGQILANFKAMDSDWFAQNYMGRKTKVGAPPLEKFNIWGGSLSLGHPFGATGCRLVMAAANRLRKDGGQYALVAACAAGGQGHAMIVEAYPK
long chain 3-ketoacyl CoA thiolase, sequence (Q64428 37-763 partner): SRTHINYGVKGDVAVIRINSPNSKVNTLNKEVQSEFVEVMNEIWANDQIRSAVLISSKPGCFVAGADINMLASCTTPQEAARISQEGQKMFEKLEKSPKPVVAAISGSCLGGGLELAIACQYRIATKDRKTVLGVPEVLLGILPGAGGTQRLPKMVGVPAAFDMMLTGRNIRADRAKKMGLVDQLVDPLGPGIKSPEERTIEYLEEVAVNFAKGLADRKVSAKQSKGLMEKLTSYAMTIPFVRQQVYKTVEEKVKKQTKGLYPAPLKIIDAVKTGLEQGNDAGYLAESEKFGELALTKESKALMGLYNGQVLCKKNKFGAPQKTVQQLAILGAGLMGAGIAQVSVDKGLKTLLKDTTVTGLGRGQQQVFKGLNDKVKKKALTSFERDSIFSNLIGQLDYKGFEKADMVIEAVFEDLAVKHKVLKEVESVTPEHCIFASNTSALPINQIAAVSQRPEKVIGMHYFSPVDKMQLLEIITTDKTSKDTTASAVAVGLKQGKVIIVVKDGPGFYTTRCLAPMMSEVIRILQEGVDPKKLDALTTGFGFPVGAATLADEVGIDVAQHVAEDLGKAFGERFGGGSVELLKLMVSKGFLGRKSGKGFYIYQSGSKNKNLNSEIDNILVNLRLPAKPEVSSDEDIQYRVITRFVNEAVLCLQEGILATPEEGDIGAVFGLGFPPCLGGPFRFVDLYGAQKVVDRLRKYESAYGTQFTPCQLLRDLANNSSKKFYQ

[3] = test system: long-chain fatty acid oxidation; conditions: Kantor et al., Circ. Res. 2000; cited from earlier work
pyruvate dehydrogenase = conditions: Kantor et al., Circ. Res. 2000; cited from earlier work
[4] = test system: Human Subject Diagnosed with Fibromyalgia; test: Treatment of human subjects diagnosed with fibromyalgia with trimetazidine (Vastarel MR 35 mg orally, twice daily); assay type: in vivo; conditions: for reduction in the widespread pain: subject-reported
Experimental: (§2) A person presented with long-standing complaints (15 years) of widespread pain—headaches, upper and lower back pain, neck pain, elbow and knee pain bilaterally, calf pain bilaterally and jaw pain. General non-specific symptoms were fatigue, symptoms of irritable bowel syndrome (constipation-type), insomnia, cognitive and memory impairment, morning stiffness, dizziness, irritability and depression.
Treatment Regime: The subject was administered trimetazidine (modified release formulation, Vastarel® MR), 35 mg orally, twice daily, originally for treatment of their cardiac condition.
as §2, with “(10” for “(15”, “hip” for “elbow and knee”, “knee” for “calf”, “stiffness,” for “stiffness, dizziness, irritability”
Treatment Regime: The subject was administered trimetazidine (modified release formulation, Vastarel® MR), 35 mg orally, twice daily.
A person presented with a 5 year history of complaints of widespread pain headaches, upper and lower back pain, neck pain, hip pain bilaterally and knee pain bilaterally. General non-specific symptoms were fatigue, symptoms of irritable bowel syndrome (constipation-type), insomnia, morning stiffness and emotional liability.
The following is a synopsis of the clinical response of each of eight (8) patients diagnosed with FMS, each of whom received treatment with trimetazidine MR (Vastarel® MR), 35 mg orally, twice daily, for a period of at least four (4) weeks

glucose oxidation = conditions: Kantor et al., Circ. Res. 2000; cited from earlier work
[5] = Example 1, after six (6) months of continuous use
[6] = Example 4, individual FMS patients, Short Term i.e. within 72 hours
[7] = Example 4, individual patients, Medium Term i.e. over four (4) weeks
[8] = Example 4, individual patients, within 72 hours
[9] = Example 4, person five, within 72 hours
[10] = Example 4, person four, within 72 hours
[11] = Example 4, person one, within 72 hours
[12] = Examples 2 and 3, after four (4) months of continuous use
[13] = Examples 2 and 3, within 24 hours

Question: Which results are given for `COc1ccc2c3c1O[C@H]1[C@@H](O)C=C[C@H]4[C@@H](C2)N(C)CC[C@@]341` [codeine]?
Answer: pain relief, prescription analgesics [1]: mild to moderate and very temporary relief; side effects, prescription analgesics [1]: frequently accompanied by unpleasant side effects; pain relief, OTC analgesics [1]: no pain relief whatsoever; also recorded: negligible pain relief

Question: With `CCN(CC)CC(=O)Nc1c(C)cccc1C` [lidocaine] as the molecule, how does the “localized pain relief, trigger point injections” value ([1]; Examples 1 and 2) read?
Answer: the best localized pain relief

Question: With `CCOC(=O)C1(c2ccccc2)CCN(C)CC1` [meperidine] as the molecule, how does the “pain relief, prescription analgesics” value [1] read?
Answer: mild to moderate and very temporary relief

Question: And the “side effects, prescription analgesics” value [1]?
Answer: frequently accompanied by unpleasant side effects

Question: With `CC(=O)Nc1ccc(O)cc1` [paracetamol] as the molecule, how does the “pain relief, OTC analgesics” value [1] read?
Answer: no pain relief whatsoever; also recorded: negligible pain relief

Question: Which results are given for `COc1cccc(C2(O)CCCCC2CN(C)C)c1` (centres unmarked) [tramadol]?
Answer: pain relief, prescription analgesics [1]: mild to moderate and very temporary relief; side effects, prescription analgesics [1]: frequently accompanied by unpleasant side effects

Question: With `COc1ccc(CN2CCNCC2)c(OC)c1OC` [trimetazidine, 1-(2,3,4-trimethyloxybenzyl)piperazine] as the molecule, how does the “activity of long chain 3-ketoacyl CoA thiolase” value [2] read?
Answer: decreased activity

Question: And the “long-chain fatty acid oxidation” value [3]?
Answer: inhibits

Question: And the “levels of pyruvate dehydrogenase” value (pyruvate dehydrogenase)?
Answer: increased levels

Question: And the “time at which benefits were first noticed after commencing therapy” value ([4]; Example 1, person, 35 mg orally twice daily)?
Answer: ≤ 24 h

Question: What about the “improvement in all symptoms and signs of fibromyalgia” value ([4]; Example 1, person, 35 mg orally twice daily, within 72 hours of starting treatment) of the same molecule?
Answer: vast improvement

Question: And the “reduction in the widespread pain” value ([4]; Example 1, person, within 72 hours)?
Answer: 90%

Question: What about the “episodes of pain at trigger points at follow-up” value [4, 5] of the same molecule?
Answer: infrequent

Question: And the “quality of life at follow-up” value [4, 5]?
Answer: same marked improvement

Question: What about the clarity of thoughts ([4]; Example 1, within 72 hours) of the same molecule?
Answer: markedly increased

Question: What about the energy levels ([4]; Example 1, within 72 hours) of the same molecule?
Answer: very significantly increased

Question: And the level of irritability ([4]; Example 1, within 72 hours)?
Answer: markedly reduced

Question: What about the mood ([4]; Example 1, within 72 hours) of the same molecule?
Answer: very improved

Question: What about the “regularity of bowel habits” value ([4]; Example 1, within 72 hours) of the same molecule?
Answer: markedly improved

Question: What about the residual pain ([4]; Example 1, within 72 hours) of the same molecule?
Answer: minimal residual pain reported at the left medial knee

Question: What about the “short and long term memory” value ([4]; Example 1, within 72 hours) of the same molecule?
Answer: improvement

Question: And the sleep patterns ([4]; Example 1, within 72 hours)?
Answer: very significantly improved

Question: What about the clarity of thoughts ([4]; Example 2, within 24 hours) of the same molecule?
Answer: markedly increased

Question: What about the “short and long term memory” value ([4]; Example 2, within 24 hours) of the same molecule?
Answer: improvement

Question: And the “reduction in widespread pain” value [4, 6]?
Answer: 90% reduction in

Question: What about the “reduction in widespread pain and trigger point pain” value [4, 6] of the same molecule?
Answer: 90% reduction in

Question: And the “affect (EXAMINATION FINDINGS; patient: affect and energy levels)” value ([4]; Example 4, individual patients)?
Answer: markedly improved

Question: What about the “resolution of trigger point tenderness (EXAMINATION FINDINGS)” value ([4]; Example 4, individual patients) of the same molecule?
Answer: Sustained

Question: And the Residual symptoms [4, 7]?
Answer: include mild acid; also recorded: infrequent headaches; also recorded: insomnia; also recorded: episodes of joint

Question: What about the sense of well-being [4, 7] of the same molecule?
Answer: increased sense of

Question: What about the specific complaints [4, 7] of the same molecule?
Answer: symptoms with no

Question: And the Energetic feeling [4, 8]?
Answer: Energetic feeling

Question: What about the “Nausea (patient: Nausea and Vomiting)” value [4, 8] of the same molecule?
Answer: Absence of Nausea

Question: And the “alertness and clarity of thinking” value [4, 8]?
Answer: Increased alertness

Question: What about the dizziness/dizzy spells [4, 8] of the same molecule?
Answer: Infrequent dizzy; also recorded: Absence of

Question: And the “improved mood and concentration” value [4, 8]?
Answer: Significantly

Question: And the “improved mood and memory” value [4, 8]?
Answer: Significantly

Question: And the “reduction in feeling of generalized tightness and stiffness of muscles” value [4, 8]?
Answer: 90% reduction in (2×) and 90% reduction of

Question: What about the sleep [4, 8] of the same molecule?
Answer: Consistent restful

Question: What about the “improved energy levels (EXAMINATION FINDINGS)” value ([4]; Example 4, person five) of the same molecule?
Answer: Markedly

Question: And the reduction in irritability [4, 9]?
Answer: 90% reduction in

Question: And the “reduction in symptoms of Irritable Bowel Syndrome” value [4, 9]?
Answer: 90% reduction in

Question: What about the Memory [4, 10] of the same molecule?
Answer: Improved Memory

Question: What about the Nervousness [4, 10] of the same molecule?
Answer: No Nervousness

Question: What about the “improvement in physical appearance (EXAMINATION FINDINGS)” value ([4]; Example 4, person one) of the same molecule?
Answer: obvious marked

Question: And the “increase in energy levels” value ([4]; Example 4, person one, after four (4) weeks of daily use)?
Answer: particular a sustained

Question: What about the “Chest Pain” value [4, 11] of the same molecule?
Answer: Absence of Chest

Question: And the “symptoms of Irritable Bowel Syndrome” value [4, 11]?
Answer: Markedly reduced

Question: What about the “sustained improvement of symptoms” value ([4]; Example 4, person three, after four (4) months of daily use) of the same molecule?
Answer: 95% sustained

Question: And the “reduction in IBS and Acid Reflux Symptoms” value ([4]; Example 4, person three, within 72 hours)?
Answer: 90% reduction in

Question: What about the “sustained improvement of symptoms” value ([4]; Example 4, person two, after seven (7) weeks of daily use) of the same molecule?
Answer: dramatic 95%

Question: And the “reduction in severity of Pre-Menstrual Cramps” value ([4]; Example 4, person two, within 72 hours)?
Answer: 70% reduction in

Question: And the “sustained improvement of all symptoms” value ([4]; Example 4, person, after five (5) weeks of daily use)?
Answer: 95% sustained

Question: What about the “sustained improvement of symptoms” value ([4]; Example 4, person, after six (6) weeks of daily use) of the same molecule?
Answer: (95%) sustained

Question: What about the “sustained improvement of symptoms” value ([4]; Example 4, after four (4) weeks of daily use) of the same molecule?
Answer: 95% sustained and 90% sustained

Question: And the “improvement in all symptoms and signs of fibromyalgia” value ([4]; Examples 2 and 3, single female patients, 35 mg orally twice daily, within 24 hours of starting treatment)?
Answer: vast improvement

Question: What about the “reduction in the widespread pain” value ([4]; Examples 2 and 3, single female patients, within 24 hours) of the same molecule?
Answer: 95%

Question: And the “quality of life at follow-up” value [4, 12]?
Answer: same marked improvement

Question: What about the relapse of symptoms [4, 12] of the same molecule?
Answer: no relapse

Question: What about the energy levels [4, 13] of the same molecule?
Answer: very significantly increased

Question: What about the mood [4, 13] of the same molecule?
Answer: very improved

Question: And the “regularity of bowel habits” value [4, 13]?
Answer: markedly improved

Question: What about the residual pain [4, 13] of the same molecule?
Answer: minimal residual pain reported at the left hip; also recorded: residual mild headache

Question: And the sleep patterns [4, 13]?
Answer: very significantly improved

Question: What about the “reduction in widespread pain” value ([4]; FMS patients, course of treatment of at least four weeks) of the same molecule?
Answer: remarkable and measurable reduction

Question: And the “sustained or improved relief of widespread pain at follow-up” value ([4]; all patients, follow-up at either four months or four weeks of treatment)?
Answer: 90-95%

Question: What about the “improvement of minor symptoms” value ([4]; all patients, within 72 hours) of the same molecule?
Answer: significant improvement

Question: What about the “improvement in widespread pain” value ([4]; eleven human subjects, each) of the same molecule?
Answer: remarkable improvement

Question: And the “reduction in widespread pain, and where applicable, tender point pain” value ([4]; eleven human subjects, each, within 72 hours of commencement of treatment)?
Answer: marked reduction

Question: What about the “reduction in widespread pain, on average” value ([4]; eleven human subjects, within 72 hours of commencing treatment) of the same molecule?
Answer: 90%

Question: And the glucose oxidation (glucose oxidation)?
Answer: stimulates
